| Structure (SMILES) | melting point [°C] |
| --- | --- |
| O=C(NCc1cccnc1)c1ccc2n1Cc1ccccc1N(C(=O)c1ccc(-c3ccccc3C=NO)cc1)C2 | 165 to 167 |
| COc1cc2ncnc(N3CCN(C(=S)Nc4ccncc4)CC3)c2cc1OC | 218 to 220 |
| C[C@]1(c2ccccc2)C[C@@]1(NS(=O)(=O)c1ccc(-c2cc(C(F)(F)F)on2)s1)C(=O)O | 130 to 132 |
| O=C(O)[C@H](Cc1ccc(C(F)(F)F)cc1)[C@H](O)c1ccc(F)cc1 (racemic) | 111 to 112 |
| CCN1CCCC(NC(=O)Cn2c(-c3ccc(Br)cc3)nc3cccnc32)C1 (configuration not stated) | 190 to 192 |
| O=C(CCc1ccccc1)CN1C(=O)CC1S(=O)Cc1ccccc1 (configuration not stated) | 110 to 111 |
| CC(C)(COC(=O)OOC(=O)OCC(C)(C)c1ccccc1)c1ccccc1 | 59 to 60 |
| Nc1ccc(OS(=O)(=O)c2ccc(NCCO)cc2)cc1[N+](=O)[O-] | 180 |
| CC(C)S(=O)(=O)c1cc(OCCc2ccccn2)c2[nH]nc(Nc3nccs3)c2c1 | 190 to 191 |
| O=C1CCC(N2C(=O)c3cccc(CNC(=O)c4ccc(C(F)(F)F)c(F)c4)c3C2=O)C(=O)N1 (configuration not stated) | 165 to 167 |
| Cn1cccc1C=CC(=O)NCCCCCC(=O)NO | 103 to 105 |
| CCCCCCCCCCC[C@H](CC(=O)N[C@@H](CO)CCCN)OCc1ccccc1 | 47 to 48 |
| Cc1cc(-c2ccc(C(F)(F)F)cc2)nc(-c2cccc(-c3cccc(S(N)(=O)=O)c3)c2)n1 | 224 |
| N#Cc1cc(-c2cccc(Cl)c2)ccc1N | 118 to 119 |
| O=C(O)c1cccc(-n2cnc3cc(-c4ccccc4)ccc32)c1 | 289 to 291 |
| Cc1ccc2[nH]c(C(=O)OCc3ccccc3)cc2c1 | 150 to 152 |
| COc1ccc(C(=O)Nc2ccccc2)cc1NCc1ccc(C)c(C)c1 | 163 to 164 |
| CCOC(=O)c1cc2ccc(-c3ccc(C)cc3)cc2n1C | 98 to 99 |
| CC(C)c1ccc(C2c3ccc(O)cc3OC2(C)C)cc1 (configuration not stated) | 114 to 115 |
| Nc1sc(-c2ccccc2)c(CN2CCCCC2)c1C(=O)c1ccc(Cl)cc1 | 185 to 187 |

| Structure (SMILES) | melting point [°C] |
| --- | --- |
| CCCCCC(=O)OC(C)OC1=C(C(=O)Nc2ccccn2)N(C)S(=O)(=O)c2ccccc21 (configuration not stated) | 62 to 65 |
| CC(C)(C)c1cc(C=O)c2c(c1O)CCCC2 | 193 to 194 |
| CS(=O)(=O)N(Cc1cccnc1)c1ccc(Cl)cc1Cl | 180 to 186 |
| CCCCN1CCC(C(=O)NO)(S(=O)(=O)c2ccc(OC)cc2)CC1 | 75 |
| CC(C)(C)OC(=O)COCCC1CCN(c2cnc(-c3ccccc3)c(-c3ccccc3)n2)CC1 | 104 to 106 |
| CC(=O)NC[C@H]1CN(c2cc(F)c(N3CCN(CCO)CC3)c(F)c2)C(=O)O1 | 172 to 174 |
| Sc1nc(CCCC2CCCCC2)c[nH]1 | 176 to 177 |
| CCOC(=O)c1cn(Cc2ccccc2)c2cc(C3CC3)nn2c1=O | 160 to 165 |
| Cc1cc(O)nc(N(C)C#N)n1 | 290 |
| C[C@H]1CN(c2ccc(C(F)(F)F)c(Cl)n2)CCN1C(=O)OC(C)(C)C | 86 |
| COc1ccc(-n2nc(CC(C(=O)N(C)O)c3ccc(Cl)cc3)cc2-c2ccc(Cl)cc2)cc1 (configuration not stated) | 113 to 117 |
| O=C(/C=C/c1ccn(S(=O)(=O)c2ccc(-n3cccn3)cc2)c1)NO | 161 to 167 |
| COC(=N)CCCCc1csc(NC(=N)N)n1 | 143 to 145 |
| Nc1ncncc1Oc1ccccc1 | 118 to 120 |
| CCCCCCN1CCN(Cc2ccc(NC(N)=S)cc2)C(=O)C1=O | 197 to 198 |
| COCc1ccc(Cl)c(C2(C)C(=O)N(Cc3ccc(OC)cc3OC)c3ccc(Cl)cc32)c1 (configuration not stated) | 122 |
| Cc1ccc(OCCOS(N)(=O)=O)cc1 | 108 to 110 |
| ClCCOc1cccc2ncccc12 | 75 to 78 |
| Nc1nc2cc(-c3ccc(C=C4SC(=O)NC4=O)cn3)cc(C34CC5CC(CC(C5)C3)C4)c2o1 | > 360 |
| CC(=O)Oc1cc(OC(C)=O)c2ccccc2c1OC(C)=O | 136 to 137 |

Results, then the compound that gave them:

| melting point [°C] | Structure (SMILES) |
| --- | --- |
| 44 to 47 | CC(=O)c1cscc1O |
| 240 | O=C(NC(=S)Nc1ccc(Cl)c(Cl)c1)c1c(Cl)cccc1Cl |
| 71 to 72 | CCCCCCCCCCCCCCCCCCNC(=O)OCC(COC)CN(C(C)=O)S(=O)(=O)CCCI (configuration not stated) |
| 68 to 71 | CNS(=O)(=O)Oc1ccccc1OC |
| 115 | COC(=O)CCNc1cc(Oc2ccc(Cl)cc2Cl)ccc1[N+](=O)[O-] |
| > 260 | CS(=O)(=O)Nc1ccc(NC(=O)C(=O)O)cc1 |
| 73.5 to 75 | CCc1cn(C(C)C(=O)N(C)C)nc1-c1ccccc1 (configuration not stated) |
| 152 to 153 | CC(C)C[C@@H]1N[C@@H](c2ccc(C#N)cc2)[C@H]2C(=O)N(Cc3ccccc3)C(=O)[C@H]21 (racemic) |
| 72 to 74 | CCc1cc(N)c(I)c(CC)n1 |
| 50 to 55 | C=CCCC(F)c1cccc(C2(c3ccc(OC(F)F)cc3)N=C(N)N(C)C2=O)c1 (configuration not stated) |
| 55 to 56 | CCCNC(=O)C(C#N)(CC)c1ccccc1 (configuration not stated) |
| 180 to 181 | CNc1nc(S(=O)(=O)Nc2c(F)cccc2F)nn1-c1ccccc1 |
| 59 to 62 | CCCNc1nc(=O)n(C2CC(N=[N+]=[N-])C(CO)O2)cc1C (configuration not stated) |
| 126 to 128 | CC(C)n1cc(-c2cnc3c(c2)nnn3Cc2ccc3ncccc3c2)cn1 |
| 203 to 208 | CCOC(=O)c1cn(-c2nc(NCc3ccc(OC)cc3)c(F)cc2F)c2c(F)c(F)c(F)c(F)c2c1=O |
| 218 to 220 | CC(c1oc2ccccc2c(=O)c1-c1cccc(F)c1)n1nc(-c2ccc(Oc3ccccc3)cc2)c2c(N)ncnc21 (configuration not stated) |

| melting point [°C] | Structure (SMILES) |
| --- | --- |
| 215 to 217 | CC(C)C(=O)Nc1ccnc(-c2ccncc2)n1 |
| 216 to 219 | Cc1cc(C(=O)O)nc(-c2ccc([N+](=O)[O-])cc2)c1 |
| 168 to 170 | Cc1cnc2c(NC(=O)c3c(Cl)cccc3Cl)cccc2c1Oc1ccccc1 |
| 148 to 149 | COc1ccc(CNc2n[nH]c(N)c2C#N)cc1 |
| 96 to 97 | O=C(O)CCC(=NOCc1ccc(OCc2cc(-c3ccccc3)no2)cc1)c1ccccc1 |
| 72.5 to 74.5 | O=C(C1CC2(CCN1)OCCO2)N1CCCC1 (configuration not stated) |
| 184 to 185 | COc1cccc(CCc2cc(C(C)(C)C)c(O)c(C(C)(C)C)c2)c1NC(=O)NC1CCN(Cc2ccccc2)CC1 |
| 226 to 230 | CCCn1c(=O)c2[nH]c(C3CC4COCC4C3)nc2n(CCC)c1=O (configuration not stated) |
| 152 to 153 | Cc1sc(-c2cccs2)nc1O |
| 184 | Cn1c(OC2CCOC2)nn(C(=O)NS(=O)(=O)c2ccccc2OC(F)(F)F)c1=O (configuration not stated) |
| 266 | COc1ccc(C2C(C(=O)c3ccc(C)cc3)=C(O)C(=O)N2c2ccc(C)nn2)cc1 (configuration not stated) |
| 121 to 123 | Sc1cccc(CN2CCCCC2)c1 |
| 135 to 138 | Cc1cc(Nc2ccc(Cl)c(Cl)c2)nc(-n2nc(C)cc2C)n1 |
| 290 to 292 | O=c1c2cc(O)ccc2oc2c([N+](=O)[O-])ccc(Cl)c12 |
| 176 to 178 | CCn1cc(C(=O)O)c(=O)c2cc(OC)c(C3CCCCC3)cc21 |
| 306 to 309 | N#Cc1cc2ccc(Cl)cc2[nH]c1=O |

From a melting point compilation (Tetko et al.; mined from patent text by program, amines drawn as free bases though some values may be those of a salt)
